Measurements taken from PubChem BioAssay (NCI).
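Growth conditions: 96-well plates. Treatment: test compound, 48 hours, 5 concentrations. Analysis: linear interpolation between bracketing concentrations; unreached endpoints set to highest concentration. Here, GI50 denotes the concentration required for 50% inhibition of growth. TGI is the concentration that stops growth completely.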

What was measured:
Assay in all cases: inhibition of tumour cell growth, NCI panel, 48 h
OVCAR-5 ovarian = tested on: OVCAR-5 ovarian
SK-MEL-28 melanoma = tested on: SK-MEL-28 melanoma
U251 CNS = tested on: U251 CNS
A549 NSCLC = tested on: A549 NSCLC
MCF7 breast = tested on: MCF7 breast
TK-10 renal = tested on: TK-10 renal
RXF 393 renal = tested on: RXF 393 renal
CAKI-1 renal = tested on: CAKI-1 renal
SN12C renal = tested on: SN12C renal
A498 renal = tested on: A498 renal

SMILES	GI50 (OVCAR-5 ovarian) [µM]	TGI (OVCAR-5 ovarian) [µM]	GI50 (SK-MEL-28 melanoma) [µM]	TGI (SK-MEL-28 melanoma) [µM]	GI50 (U251 CNS) [µM]	TGI (U251 CNS) [µM]	GI50 (A549 NSCLC) [µM]	TGI (A549 NSCLC) [µM]	GI50 (MCF7 breast) [µM]	TGI (MCF7 breast) [µM]	GI50 (TK-10 renal) [µM]	TGI (TK-10 renal) [µM]	GI50 (RXF 393 renal) [µM]	TGI (RXF 393 renal) [µM]	GI50 (CAKI-1 renal) [µM]	TGI (CAKI-1 renal) [µM]	GI50 (SN12C renal) [µM]	TGI (SN12C renal) [µM]	GI50 (A498 renal) [µM]	TGI (A498 renal) [µM]
CCOC(=O)CSc1cc(Cl)c(C)cc1S(=O)(=O)/N=C(/N=C/c1ccc([N+](=O)[O-])s1)NNC	6.02	38.4	16.1	29.7	17	38.7	32.7	> 100	32.6	> 100	23	67.6	22	> 100	17.6	49.3				
CCOC(=O)[C@@H](C)C[C@H](Cc1ccccc1)NC(=O)c1csc([C@@H](C[C@H](C(C)C)N(C)C(=O)[C@@H](NC(=O)[C@H]2CCCCN2C)C(C)(C)CC)OC(C)=O)n1	0.0037	> 16.7	1.2	> 16.7	< 0.00167	> 7.64	< 0.00167	> 16.7	< 0.00167	> 16.7	0.0418	> 16.7			0.00176	> 9.4	0.00247	5.9	< 0.00167	0.0114
O=C(c1ccc(O)cc1O)C1C(c2ccc(O)cc2)OC(c2ccc(O)cc2)C1C(=O)c1ccc(O)cc1O (stereo not given)		29.7		36		32.9		> 100				49.8		45.5		> 100				
CCCNC(=O)Nc1c([N+](=O)[O-])cc(C(F)(F)F)cc1[N+](=O)[O-]		> 100		> 100		> 100		> 100				> 100		76.1		> 100				> 100
Cc1ccccc1N=Nc1c(O)ccc2ccccc12		> 100		> 100		> 100		> 100				> 100		> 100		> 100		> 100		
CC(C)=CCc1cc2c(cc1O)C1=C(C(=O)C3=C(C1=O)S(=O)(=O)CCN3)C(C=C(C)C)O2 (stereo not given)	2.73	5.93	0.541	1.92	1.24	3.74	2.23	5.59	0.354	1.31	4.96	10.4	0.596	2.26			0.294	0.651	3.54	5.96
Nc1ccc2n[se]nc2c1		> 100		> 100		> 100		> 100				> 100		> 100		> 100		> 100		> 100
Nc1nnc2c(-c3ccccc3)[nH]nc2n1		> 100		> 100				> 100				> 100		> 100		> 100		> 100		> 100
Cc1ccc(NC(=O)CCc2nc(=S)[nH][nH]2)cc1		> 100		> 100		> 100		> 100				> 100				> 100		> 100		> 100
